The results in this text go back to US20260297042A1, “BIARYLAMIDE DERIVATIVES AND THEIR USE AS PKMYT1 INHIBITORS” (CANCER RESEARCH TECHNOLOGY LIMITED, priority 2023, published 2026).

One test deals with T1, WEE1 (Homo sapiens, UniProt P30291).
T1 construct: purchased Thermo Fisher PR7373A
The test can be described thus: Selectivity versus WEE1 assay (ADP-Glo enzymatic assay). It is filed as biochemical. As to conditions: for IC50: ADP-Glo; for PKMYT1 vs. WEE1 selectivity: fold difference in selectivity for PKMYT1 over WEE1. Here is the method:
Selectivity versus WEE1 assay: Selectivity was established using the same format as outlined for PKMYT1. After dosing of compounds via the Echo acoustic dispenser—as described above—WEE1 (Thermo Fisher PR7373A) was added to each well at a final concentration of 15 nM in a buffer of 50 mM HEPES (pH 7.5), 10 mM MgCl2, 1 mM EGTA, 0.01% Brij-35, 1% DMSO. 30 µM ATP was added to start the reaction with the final assay volume being 4 μl. The plate was then incubated for 60 minutes at 26° C. before the addition of 4 μl of ADP-Glo Reagent. Following a further 60 minute incubation the assay signal was developed by the addition of 8 μl ADP-Glo Detection Reagent. After 60 minutes the luminescence signal was read on a PHERAStar FS microplate reader (BMG Labtech).
(§1) Data analysis: Data was captured and analysed within the Dotmatics Studies software module where dose response curves were generated and IC50 values determined. Acceptance and verification of data followed strict in-house business rules which are summarised as follows. […] Technical and biological replicates of each compound are routinely tested and replicate IC50 values must fall within 3-fold of each other with dose response curves showing ‘goodness of fit’ r2 values >0.9. Failure to meet any of these defined criteria result in rejection of data.
Background: ADP-Glo turns the ADP formed in a reaction into a luminescent signal.

A further test has as its target T2, Human PKMYT1 (Homo sapiens, UniProt Q99640).
T2 construct: Human PKMYT1 75-362 was cloned as a TEV cleavable 6xHis fusion; 6xHis (TEV cleavable) (cleaved yes); made in house; host or cells: bacterial cells
T2 sequence (Q99640 75-362): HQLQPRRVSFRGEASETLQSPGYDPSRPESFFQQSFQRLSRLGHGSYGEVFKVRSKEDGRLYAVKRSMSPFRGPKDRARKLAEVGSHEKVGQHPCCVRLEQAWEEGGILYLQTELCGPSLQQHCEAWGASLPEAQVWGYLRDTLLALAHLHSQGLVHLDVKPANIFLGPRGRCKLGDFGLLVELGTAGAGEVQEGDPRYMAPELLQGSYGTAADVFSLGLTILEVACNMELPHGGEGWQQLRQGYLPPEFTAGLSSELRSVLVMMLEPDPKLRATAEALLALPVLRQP
In words: PKMYT1 biochemical ADP-Glo enzymatic assay. Particulars: ADP-Glo. Here is the method: Human PKMYT1 75-362 was cloned as a TEV cleavable 6xHis fusion in bacterial cells. After purification on a Ni++HiTrap Chelating HP column, the His-tag was cleaved using TEV protease. Cleaved PKMYT1 was further purified on a Superdex 200 16/600 sizing column. The fractions containing PKMYT1 were pooled and concentrated using an ultrafiltration centrifugal protein concentrator. The purified protein was aliquoted, flash frozen in liquid nitrogen, and stored at −80° C.
PKMYT1 biochemical assay: Inhibition of PKMYT1 was assessed using the ADP-Glo™ Max Detection System from Promega. This assay detects the production of ADP from ATP by PKMYT1 via a two-step process ultimately involving the conversion of ADP to ATP with the latter converted to light in a coupled reaction with luciferase/luciferin. Inhibition of PKMYT1 by small molecule inhibitors results in a retardation of luminescence above background. The intrinsic ATPase activity of PKMYT1 was assessed according to the following protocol. Compounds were dosed into Corning white low volume 384 well assay plates using an Echo acoustic dispenser to generate 10-point curves spanning a 3-fold dilution series. DMSO (no inhibitor) control wells were prepared to benchmark the maximum and minimum signals in the presence and absence of PKMYT1, respectively. The PKMYT1 kinase domain was purified in-house, as described above, and added to the wells at a final concentration of 15 nM in a buffer of 50 mM HEPES (pH 7.5), 10 mM MgCl2, 1 mM EGTA, 0.01% Brij-35, 1% DMSO. 500 µM ATP was added to start the reaction with the final assay volume being 4 μl. The plate was then incubated for 60 minutes at 26° C. before the addition of 4 μl of ADP-Glo Reagent to stop the reaction and deplete the unconsumed ATP. Following a further 60 minute incubation the assay signal was developed by the addition of 8 μl ADP-Glo Max Detection Reagent. After 60 minutes the luminescence signal was read on a PHERAStar FS microplate reader (BMG Labtech).
as §1

Where [1] appears, read: 15 nM WEE1, 60 minutes at 26° C., banded.
Setting [2] is: banded, ">N" = at least in this band but could be higher.
The mark [3] stands for this setting: 15 nM PKMYT1 kinase domain, 500 µM ATP, 60 minutes at 26° C., banded.
The mark [4] stands for this setting: PKMYT1 kinase domain 15 nM, banded values.

T1 sequence (P30291 whole entry): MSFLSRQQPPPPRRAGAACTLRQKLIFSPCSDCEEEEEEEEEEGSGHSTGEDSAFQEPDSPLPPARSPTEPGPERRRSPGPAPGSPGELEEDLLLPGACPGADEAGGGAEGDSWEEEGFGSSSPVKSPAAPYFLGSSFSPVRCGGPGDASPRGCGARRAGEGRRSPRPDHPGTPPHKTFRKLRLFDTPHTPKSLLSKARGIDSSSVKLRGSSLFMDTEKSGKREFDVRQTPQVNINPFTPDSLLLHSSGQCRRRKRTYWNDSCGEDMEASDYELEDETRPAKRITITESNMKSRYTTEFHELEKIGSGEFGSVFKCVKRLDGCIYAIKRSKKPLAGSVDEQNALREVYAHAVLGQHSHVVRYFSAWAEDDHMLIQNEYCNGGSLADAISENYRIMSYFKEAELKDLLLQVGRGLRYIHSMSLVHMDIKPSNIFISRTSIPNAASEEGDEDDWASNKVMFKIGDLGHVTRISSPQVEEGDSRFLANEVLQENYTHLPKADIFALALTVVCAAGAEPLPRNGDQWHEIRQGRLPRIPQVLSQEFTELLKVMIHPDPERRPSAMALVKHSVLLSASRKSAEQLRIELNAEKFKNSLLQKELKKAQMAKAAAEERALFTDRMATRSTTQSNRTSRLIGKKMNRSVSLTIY

One may read the IC50 as the point on the concentration scale where inhibition reaches its midpoint. The low end stands for greater potency in that assay, the high end for weaker potency in that assay. In the case of `Cc1cc(Nc2ccc(F)cc2)nnc1Nc1ncc(C(=O)Nc2c(C)ccc(O)c2C)s1` [BAA-324, 2-((6-((4-fluorophenyl)amino)-4-methylpyridazin-3-yl)amino)-N-(3-hydroxy-2,6-dimethylphenyl)thiazole-5-carboxamide], the IC50 on WEE1 (setting [1]) is above 11000 nM; at Human PKMYT1 (setting [3]) it was 50 to 1000 nM. The “PKMYT1 vs. WEE1 selectivity” value at WEE1 (setting [2]) was “X (100-<1000 fold)”.
Consider `CCC(=O)N1CCC(CNc2ncc(C(=O)Nc3c(C)ccc(O)c3C)s2)CC1` [BAA-077, N-(3-hydroxy-2,6-dimethyl-phenyl)-2-[(1-propanoyl-4-piperidyl)methylamino]thiazole-5-carboxamide], for which the IC50 was above 11000 nM on WEE1 (setting [1]) and 50 to 1000 nM against Human PKMYT1 (setting [3]). In addition, on WEE1 (setting [2]), the “PKMYT1 vs. WEE1 selectivity” value is listed as “>X (100-<1000 fold)”.
The matching figures for `Cc1ccc(O)c(C)c1NC(=O)c1cnc(Nc2cc3ccc(O)cn3n2)s1` [BAA-343, N-(3-Hydroxy-2,6-dimethylphenyl)-2-((6-hydroxypyrazolo[1,5-a]pyridin-2-yl)amino)thiazole-5-carboxamide]: 1000 to 11000 nM, 50 to 1000 nM and “W (10-<100 fold)”.
On to `Cc1ccc(O)c(C)c1NC(=O)c1cnc(Nc2ccn(CC(=O)N(C)C)n2)s1` [BAA-117, 2-[[1-[2-(Dimethylamino)-2-oxo-ethyl]pyrazol-3-yl]amino]-N-(3-hydroxy-2,6-dimethyl-phenyl)thiazole-5-carboxamide], for which the IC50 at WEE1 (setting [1]) is above 11000 nM; at Human PKMYT1 (setting [3]) it was below 50 nM. For the same molecule, the “PKMYT1 vs. WEE1 selectivity” value on WEE1 (setting [2]) is reported as “Y (1000-5000 fold)”.
For the molecule `Cc1ccc(O)c(C)c1NC(=O)c1cnc(Nc2ccc3cc(Br)ccc3n2)s1` [BAA-300, 2-((6-bromoquinolin-2-yl)amino)-N-(3-hydroxy-2,6-dimethylphenyl)thiazole-5-carboxamide], the IC50 is above 11000 nM against WEE1 (setting [1]) and 50 to 1000 nM against Human PKMYT1 (setting [3]). In addition, on WEE1 (setting [2]), the “PKMYT1 vs. WEE1 selectivity” value is listed as “X (100-<1000 fold)”.
Take `CCOc1ccc(Nc2ncc(C(=O)Nc3c(C)ccc(O)c3C)s2)cc1` [BAA-503, 2-((4-ethoxyphenyl)amino)-N-(3-hydroxy-2,6-dimethylphenyl)thiazole-5-carboxamide]: the IC50 fell in the range of 1000 to 11000 nM at WEE1 (WEE1 15 nM, banded values) and 50 to 1000 nM against Human PKMYT1 (setting [4]). Also, on WEE1 (banded), the “PKMYT1 vs. WEE1 selectivity” value is reported as “W (10-<100 fold)”.
The like results for `Cc1ccc(O)c(C)c1NC(=O)c1cnc(Nc2cc(C(=O)N3CCCC3)n(C)n2)s1` [BAA-544, N-(3-hydroxy-2,6-dimethylphenyl)-2-((1-methyl-5-(pyrrolidine-1-carbonyl)-1H-pyrazol-3-yl)amino)thiazole-5-carboxamide] were, in that order, 1000 to 11000 nM, 50 to 1000 nM and “W (10-<100 fold)”.
As for `Cc1ccc(O)c(C)c1NC(=O)c1cnc(Nc2ccn(CC(=O)N3CCC4(CC3)CCN(C(=O)OC(C)(C)C)C4)n2)s1` [BAA-155, tert-butyl 8-[2-[3-[5-[(3-hydroxy-2,6-dimethyl-phenyl)carbamoyl]thiazol-2-ylamino]pyrazol-1-yl]acetyl]-2,8-diazaspiro[4.5]decane-2-carboxylate], the results for the IC50 on WEE1 (setting [1]) and at Human PKMYT1 (setting [3]) were above 11000 nM and below 50 nM, respectively. Besides, the “PKMYT1 vs. WEE1 selectivity” value at WEE1 (setting [2]) was “X (100-<1000 fold)”.
The matching figures for `Cc1ccc(O)c(C)c1NC(=O)c1cnc(Nc2ccn([C@@H]3CCN(C(=O)C(C)C)C3)n2)s1` [BAA-086]: above 11000 nM, 50 to 1000 nM and “>Y (1000-5000 fold)”.
The like results for `Cc1ccc(O)c(C)c1NC(=O)c1cnc(Nc2ccn(CCO)n2)s1` [BAA-011] were, in that order, 1000 to 11000 nM, below 50 nM and “W (10-<100 fold)”.
The like results for `Cc1ccc(O)c(C)c1NC(=O)c1cnc(NC2Cc3ccccc3C2)s1` [BAA-353, 2-((2,3-dihydro-1H-inden-2-yl)amino)-N-(3-hydroxy-2,6-dimethylphenyl)thiazole-5-carboxamide] were, in that order, above 11000 nM, 1000 to 11000 nM and “W (10-<100 fold)”.
